Experimental data published in patent US20110217300A1, “Quinazolinone Compounds and Methods of Use Thereof” (priority 2007, published 2011).
Read-outs that look alike come from different tables or passages of the source.

How the values were obtained:
NCI-H460 = experiment: MTS cell viability assay; type: cell-based, human; conditions: Homo sapiens, NCI-H460, 72 h
Method: Cell viability was determined by measuring the activity of dehydrogenase enzymes in metabolically active cells using a tetrazolium compound, MTS. The assay was performed as described in Promega Technical Bulletin No. 169 (CellTiter 96 Aqueous Non-Radioactive Cell Proliferation Assay). Two human cancer cell lines were assayed (see, Table 1). Cells were maintained at 37° C. and 5% CO2 in DMEM media (4.5 g/L glucose) supplemented with 10% heat-inactivated FBS, 10 mM L-glutamine, and 10 mM Hepes pH 7.5. Briefly, cells were seeded in 96-well plates as set forth in Table 1 and incubated for 16-24 hours. Candidate compounds were serially diluted in DMSO, further diluted in cell culture media, and then added to cells (final DMSO concentration of 0.33%). Cells were incubated in the presence of candidate compound for 72 hours. MTS stock solution (MTS 2 gm/L, PMS […] in PBS) was added to the cells (final concentration MTS […] and PMS 7.67 mg/L) and incubated for 4 hours. SDS was added to a final concentration of 1.4% and absorbance at 490 nm was measured within two hours using a plate reader. […] GI50 values were given in Table 2 for the compounds listed. The Compound Numbers in Table 2 correspond to the numbers listed parenthetically in the Example titles. Where multiple measurements were made by different technicians, both values are given.
Cell viability was determined for N-(3-amino-propyl)-3-chloro-N—[(R)-1-(7-chloro-4-oxo-3-phenylamino-3,4-dihydro-quinazolin-2-yl)-but-3-ynyl]-2-fluoro-benzamide (compound I of Table 2). The cell viability assay of Example 105 was used. GI50 was determined using a variety of cell lines. Cells were plated at 100-5000 cells per well. At least 2 replicates were performed. Where multiple measurements were made by different technicians, both values are given.

HsEg5 = biological target: T1, HsEg5 (Homo sapiens, UniProt P52732); experiment: Fluorescence detection of HsEg5 ATPase activity (ADP Quest, automated); type: biochemical
T1 sequence (P52732 18-359 limits assumed): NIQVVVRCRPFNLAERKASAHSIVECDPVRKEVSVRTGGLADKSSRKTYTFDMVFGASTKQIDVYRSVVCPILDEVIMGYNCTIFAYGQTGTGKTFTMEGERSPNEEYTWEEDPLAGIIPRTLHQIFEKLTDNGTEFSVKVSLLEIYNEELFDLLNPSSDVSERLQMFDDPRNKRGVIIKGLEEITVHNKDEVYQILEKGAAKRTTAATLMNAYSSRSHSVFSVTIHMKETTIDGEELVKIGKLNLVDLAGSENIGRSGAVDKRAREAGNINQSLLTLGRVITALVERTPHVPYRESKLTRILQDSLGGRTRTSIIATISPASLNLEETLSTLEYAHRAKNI
Method: Purified HsEg5 motor fragment was activated by mixture with preformed MT polymer (Cytoskeleton, Denver, Colo.) at room temperature for 20 minutes. MT activated ATPase activity was measured using ADP Quest (DiscoverX, Fremont, Calif.) in which a coupled-enzyme assay can translate accumulation of ADP into detectable resorufin signal (FIG. 1A). Fluorescence was measured at λEx=535 nm and λEm=590 nm on a Wallac Victor 2 plate reader (Perkin-Elmer Life Sciences, Boston, Mass.). Reagent A and B from ADP Quest kit were aliquoted and frozen in −20° C. before use. A standard curve was determined using the provided ADP reagent in the reaction buffer that consisted of 50 mM Pipes (pH7.0), 5.0 mM MgCl2, 20 μM paclitaxel and […]. The same buffer was used for Km determination with HsEg5 concentration of 10 nM.
For inhibitor screening, 4 μL of compounds were incubated with 10 μL of MT-activated HsEg5 such that the final concentrations for compound range from 100 μM to 5 nM (1 to 3 serial dilutions, final concentration) and final concentration for HsEg5 is 10 nM. The mixture was incubated at room temperature for 10 minutes with mild shaking. The screening assay contained 0.3% DMSO in all reaction wells. We used wells containing only DMSO as negative controls and wells without ATP as background. Addition of 6 μL ATP (final concentration of 20 μM) initiated the ATP hydrolysis reaction. The 20 μL-reaction was allowed to proceed at room temperature for 10 minutes before addition of 10 μL of reagent A and 20 μL of reagent B. After 20-minute development at room temperature, the fluorescence was measured and data analysis was performed using GraphPad Prism version 3.0 (GraphPad Software, San Diego, Calif.)
For the purpose of high-throughput screening, we automated the fluorescence assay using a Sciclone ALH3000 (Caliper Life Sciences, Hopkinton, Mass.) and Multidrop 384 (Thermo Electron Corp, Waltham, Mass.). First, compound dilution plates for screening (at 10 μM or 1 μM) and ICso determination (10 data points from 100 μM to 5 nM) were made in Corning polypropylene V-bottom 96-well plates. In both cases, the 1st and 7th column contained background (No ATP addition) and negative control (DMSO only). For screening compounds at 10 μM or 1 μM, […] of each compound at 50 μM or 5 μM were used in a 20 μL assay reaction. For IC50 determination, the mother compound plate contained 24 μL of tested compound at stock concentration of 30 mM. 6 μL of each test compound in 30 mM was added to each well in the column 2 and followed by 1:3 serial dilutions in DMSO with the Sciclone ALH3000. 234 μL of assay buffer was then added using a Multidrop 384. Then 4 μL of diluted compounds was used in 20 μL-reaction. The final concentration was a 1:300 dilution of the original stock. Second, a reagent source plate was prepared with three rows designated to MT-activated HsEg5, Reagent A and Reagent B respectively. MTs were diluted with assay buffer and polymerized at room temperature for 10 minutes. Just before use, HsEg5 protein was thawed on ice and activated by addition of MT polymers at room temperature for 20 minutes. HsEg5/MT was then added to Row A of the reagent source plate. The final assay concentration was 10 nM HsEg5 and 500 nM MTs. Reagent A and B were stored at −20° C. and thawed at room temperature followed by transferring to rows B & C of the reagent source plate. Third, ATP substrate plate was prepared by transferring 80 μM ATP solution to each well of a V-shape 96-well plate except the wells in the first row where assay buffer was added instead to have no-ATP blanks. The final concentration for ATP in the assay was 20 μM.
The assay was programmed on Sciclone ALH3000 with the following procedures: 1) Addition of 4 μL compounds to the assay plate, followed by addition of 10 μL of MT-activated HsEg5. […]

A549 = experiment: MTS cell viability assay; type: cell-based; conditions: Homo sapiens, A549 non small cell lung, 72 hours, read-out: MTS NCI A549 GI50
Method: Two human cancer cell lines were assayed (see, Table 1). Cells were maintained at 37° C. and 5% CO2 in DMEM media (4.5 g/L glucose) supplemented with 10% heat-inactivated FBS, 10 mM L-glutamine, and 10 mM Hepes pH 7.5. Briefly, cells were seeded in 96-well plates as set forth in Table 1 and incubated for 16-24 hours. Candidate compounds were serially diluted in DMSO, further diluted in cell culture media, and then added to cells (final DMSO concentration of 0.33%). Cells were incubated in the presence of candidate compound for 72 hours. […] The Compound Numbers in Table 2 correspond to the numbers listed parenthetically in the Example titles.

[1] = read-out: MTS NCI H460 GI50, NCI-H460 non small cell lung, 72 hours

## CCC(c1nc2cc(Cl)ccc2c(=O)n1Nc1ccccc1)N(CCCN)C(=O)c1ccc(Br)cc1 (stereo not shown) [Compound 2, N-(3-Aminopropyl)-N-[1-(3-anilino-7-chloro-4-oxo-3,4-dihydroquinazolin-2-yl)propyl]-4-bromobenzamide]
NCI-H460; read-out: MTS NCI H460 GI50
  GI50: 1.75 µM
HsEg5
  IC50: 0.645 µM
A549
  GI50: 2.37 µM

## CCC(c1nc2cc(Cl)ccc2c(=O)n1Nc1ccccc1)N(CCCN)C(=O)c1ccc(C)cc1 (stereo not shown) [Compound 3, N-(3-Aminopropyl)-N-[1-(3-anilino-7-chloro-4-oxo-3,4-dihydroquinazolin-2-yl)propyl]-4-methylbenzamide]
NCI-H460; [1]
  GI50: 1.19 µM
HsEg5
  IC50: 0.702 µM
A549; A549, 72 h
  GI50: 2.3 µM

## CCC(c1nc2cc(Cl)ccc2c(=O)n1Nc1ccccc1)N(CCCN)C(=O)c1ccc(Cl)cc1 (stereo not shown) [Compound 4, N-(3-Aminopropyl)-N-[1-(3-anilino-7-chloro-4-oxo-3,4-dihydroquinazolin-2-yl)propyl]-4-chlorobenzamide]
NCI-H460; read-out: MTS NCI H460 GI50
  GI50: 1.14 µM
HsEg5
  IC50: 0.72 µM
A549
  GI50: 2.4 µM

## CCC(c1nc2cc(Cl)ccc2c(=O)n1Nc1ccccc1)N(CCCN)C(=O)c1ccc([N+](=O)[O-])cc1 (stereo not shown) [Compound 5, N-(3-Aminopropyl)-N-[1-(3-anilino-7-chloro-4-oxo-3,4-dihydroquinazolin-2-yl)propyl]-4-nitrobenzamide]
NCI-H460; read-out: MTS NCI H460 GI50
  GI50: 2.39 µM
HsEg5
  IC50: 1.05 µM
A549
  GI50: 4.4 µM

## C#CC[C@H](c1nc2cc(Cl)ccc2c(=O)n1Nc1ccccc1)N(CCCN)S(=O)(=O)c1ccc(C)cc1 [Compound 30, N-(3-amino-propyl)-N—[(R)-1-(7-chloro-4-oxo-3-phenylamino-3,4-dihydro-quinazolin-2-yl)-but-3-ynyl]-4-methyl-benzenesulfonamide]
NCI-H460; [1]
  GI50: 12 µM
A549; A549, 72 h
  GI50: 7.1 µM

## CC[C@H](c1nc2cc(Cl)ccc2c(=O)n1Nc1ccccc1)N(CCCN)S(=O)(=O)c1cccc(F)c1 [Compound 31, N-(3-Aminopropyl)-N-[(1R)-1-(3-anilino-7-chloro-4-oxo-3,4-dihydroquinazolin-2-yl)propyl]-3-fluorobenzenesulfonamide]
HsEg5
  IC50: 1.43 µM
A549
  GI50: 10.8 µM

## CC[C@H](c1nc2cc(Cl)ccc2c(=O)n1Nc1ccccc1)N(CCCN)S(=O)(=O)c1c(C)nn(C)c1C [Compound 33, N-(3-Aminopropyl)-N-[(1R)-1-(3-anilino-7-chloro-4-oxo-3,4-dihydroquinazolin-2-yl)propyl]-1,3,5-trimethyl-1H-pyrazole-4-sulfonamide]
NCI-H460; read-out: MTS NCI H460 GI50
  GI50: 10.4 µM
HsEg5
  IC50: 4.22 µM

## CSCCC(c1nc2cc(Cl)ccc2c(=O)n1Nc1ccccc1)N(CCCN)C(=O)c1cccc(Cl)c1F (stereo not shown) [Compound 38, N-(3-Aminopropyl)-N-[1-(3-anilino-7-chloro-4-oxo-3,4-dihydroquinazolin-2-yl)-3-(methylthio)propyl]-3-chloro-2-fluorobenzamide]
NCI-H460; [1]
  GI50: 3.59 µM
HsEg5
  IC50: 4.59 µM

## Cc1ccc(C(=O)N(CCCN)C(c2nc3cc(Cl)ccc3c(=O)n2Nc2ccccc2)C(C)C)cc1F (stereo not shown) [Compound 46, N-(3-Aminopropyl)-N-[1-(3-anilino-7-chloro-4-oxo-3,4-dihydroquinazolin-2-yl)-2-methylpropyl]-3-fluoro-4-methylbenzamide]
NCI-H460; [1]
  GI50: 0.678 µM
HsEg5
  IC50: 0.246 µM

## CCCCC(c1nc2cc(Cl)ccc2c(=O)n1Nc1ccccc1)N(CCCN)C(=O)c1ccc(C)cc1 (stereo not shown) [Compound 59, N-(3-Aminopropyl)-N-[1-(3-anilino-7-chloro-4-oxo-3,4-dihydroquinazolin-2-yl)pentyl]-4-methylbenzamide]
NCI-H460; read-out: MTS NCI H460 GI50
  GI50: 4.24 µM
HsEg5
  IC50: 52.3 µM

## CCC(c1nc2cc(Cl)ccc2c(=O)n1Nc1ccccc1)N(CCN)C(=O)c1ccc(Cl)cc1 (stereo not shown) [Compound 60, N-(2-Aminoethyl)-N-[1-(3-anilino-7-chloro-4-oxo-3,4-dihydroquinazolin-2-yl)propyl]-4-chlorobenzamide]
NCI-H460; read-out: MTS NCI H460 GI50
  GI50: 10 µM
HsEg5
  IC50: 3.99 µM

## C#CC[C@H](c1nc2cc(Cl)ccc2c(=O)n1Nc1ccccc1)N(CCCN)Cc1ccc(C)cc1 [Compound 66, 2-{(R)-1-[(3-Amino-propyl)-(4-methyl-benzyl)-amino]-but-3-ynyl}-7-chloro-3-phenylamino-3H-quinazolin-4-one]
NCI-H460; [1]
  GI50: 3.2 µM
A549; A549, 72 h
  GI50: 2.35 µM

## CC[C@H](c1nc2cc(Cl)ccc2c(=O)n1Nc1ccccc1)N(CCCN)Cc1ccc(C)cc1 [Compound 68, 2-{(R)-1-[(3-Amino-propyl)-(4-methyl-benzyl)-amino]-propyl}-7-chloro-3-phenylamino-3H-quinazolin-4-one]
NCI-H460; [1]
  GI50: 2.59 µM
A549; A549, 72 h
  GI50: 3.86 µM

## CC[C@H](c1nc2cc(Cl)ccc2c(=O)n1Nc1ccccc1)N(CCCN)Cc1ccc(F)c(C)c1 [Compound 69, 2-{(1R)-1-[(3-Aminopropyl)(4-fluoro-3-methylbenzyl)amino]propyl}-3-anilino-7-chloro-3H-quinazolin-4-one]
NCI-H460; [1]
  GI50: 3.77 µM
A549; A549, 72 h
  GI50: 3.9 µM

## CC[C@H](c1nc2cc(Cl)ccc2c(=O)n1Nc1ccccc1)N(CCCN)Cc1ccccc1 [Compound 70, 2-{(1R)-1-[(3-aminopropyl)(benzyl)amino]propyl}-3-anilino-7-chloro-3H-quinazolin-4-one]
NCI-H460; [1]
  GI50: 4.23 µM
A549; A549, 72 h
  GI50: 6.91 µM
